Experiments:
rats [1] = details: in rats; cited from earlier work
rats [2] = experiment: 5 Choice Serial Reaction Time Task (5-CSRTT); format: in vivo, rats (males; Long Evans)
Experimental: (§1) Testing was carried out in Vancouver (Canada) using rats (males; Long Evans from Charles River) which were given at least two weeks to acclimatise to the animal facility. They were housed in pairs on a 12 hour reverse light-dark cycle (lights off at 7 am). In the second week of acclimatisation, rats were handled briefly each day. […] For each task, there was then a habituation session to the operant boxes before training began.
(§2) Ebselen, cocaine and 2,5-dimethoxy-4-iodoamphetamine (DOI) were obtained from Sigma Aldrich, and MDL 100,907 was obtained from Tocris. Ebselen was dissolved in 0.5M DMSO and made up to injection volume (8 ml/kg) using 4% cyclodextrin. Cocaine and DOI were dissolved in 0.9% saline. MDL 100,907 was dissolved in 0.9% saline and the pH was adjusted to 6.25 using 1M NaOH and 0.1M HCl.
(§3) All data for the cognitive tasks are presented as mean+SEM change from baseline: • performance on drug day−performance on the previous day
(§4) The data were analysed with repeated measures ANOVA with dose as a within-subject factor. Where appropriate, post-hoc analysis was performed using Student's paired t-test.
This test was performed as described previously (Bari et al., Nature Protocols, 2008, 3(5), 759-767; Robbins, Psychopharmacology, 2002, 163(3), 362-380).
Fourteen rats were trained to respond to brief visual cues presented in one of five target areas with an inter-trial interval of 5 seconds. On the day of testing in the presence of ebselen, the inter-trial interval was lengthened to 7 seconds to cause a reliable increase in premature responding.
Ebselen and vehicle were administered by intraperitoneal (i.p.) injection 1 hour prior to testing. Three doses of ebselen (2, 5 or 10 mg/kg) were studied, administration being in a random order that was determined by a Latin square design. Rats were run five days a week, with the treatment day falling on day three.
Following ebselen, 3 doses of MDL 100,907 (0.01, 0.03 and 0.1 mg/kg, i.p.) were tested in a Latin square design with the first injection occurring one week after the final injection of ebselen. MDL 100,907 is a selective 5-HT2A antagonist. Rats were similarly run five days a week with injections falling on the third day, and the lengthened inter-trial interval was used only on the drug-administration day.
(§5) The Latin square design (for both the 5-CSRTT and rGT experiments) was counterbalanced, based on performance in the last training day of each task. A one week wash-out period was given between drug-administration days. A baseline session was performed both the day before and the day after treatment to ensure stable off-drug performance.

healthy participants = experiment: Human study: subjective ratings (PANAS mood, side effect profile, LSEQ sleep, guess of treatment arm); format: in vivo
Source text: Twenty healthy participants (7 females, 13 males; mean age 25.1 years, range 20-38 years; mean BMI 22.7 kg/m^2, range 18.7-30.0 kg/m^2) were included in the study after giving full informed written consent.
Exclusion criteria included a history of any DSM-5 Axis I psychiatric disorder (determined using the […] for Diagnostic and Statistical Manual for Mental Health Disorders), significant current medical condition, current regular medication (apart from the contraceptive pill), pregnancy or lactation, heavy smoking (defined as more than 5 cigarettes per day) and having taken part in another study involving an investigational drug within the previous 3 months. Participants were asked to maintain stable exercise and diet as well as refrain from alcohol during study participation.
Ebselen capsules and identical matching placebo (containing microcrystalline cellulose) were purchased from Shasun Pharmaceuticals Ltd. Participants were tested twice (seven days apart) receiving on one occasion ebselen and, on the other, placebo in a randomised, double-blind, cross-over design. Ebselen was administered in 6×200 mg capsules in three doses given over two days. The order of receiving either the ebselen or the placebo was randomised.
On the day before cognitive testing, participants took the first dose at 1 pm and the second dose at 10 pm. The final dose was taken around 3 hrs prior to cognitive testing. Participants were sent text message reminders a few minutes before they were due to take medication, and were asked to confirm receipt of the messages. The cognitive tasks were carried out immediately after a magnetic resonance spectroscopy study.
On the screening visit, participants were assessed for baseline depression and anxiety symptoms with the Beck Depression Inventory (Beck et al.; Arch. Gen. Psychiatry; 1961, 4: 561-571) and the state measure of the State-Trait Anxiety Inventory (STAI) (Spielberger et al.; Manual for the State-Trait Anxiety Inventory, Consulting Psychologists Press, Palo Alto Calif., 1983), and for personality with the Eysenck Personality Questionnaire (Eysenck and Eysenck, Manual of the Eysenck Personality Questionnaire, London: Hodder & Stoughton, 1975). On the morning preceding psychological testing, the Leeds Sleep Evaluation Questionnaire (LSEQ) was completed within 30 minutes of waking (Parrot and Hindmarch, Psychopharmacology, 1980, 71, 173-179).
Before cognitive testing, participants were asked to rate their mood using the Positive and Negative Affective Schedule (PANAS) (Watson et al.; J. Pers. Soc. Psychol., 1988, 54, 1063-1070), to complete a side effect profile using a 4-point rating scale and also to guess as to whether they had received ebselen or placebo on that randomization arm. […]

rats [3] = experiment: Rodent Gambling Task (rGT); format: in vivo, rats (males; Long Evans)
Experimental: as §1, §2, §3, §4, §5
This was performed as described previously (Zeeb et al; Neuropsychopharmacology, 2009, 34(10), 2329-2343), and is illustrated schematically in FIG. 2. Twenty one rats were trained to respond in standard 5-CSRTT boxes. Once reliable responding was established, different reward contingencies were associated with four nose-poke apertures (the central aperture was not used in this task). In each case, the reward size and probability of outcome differed between the choices. When no reward was delivered, a fixed-length time-out was delivered. The length of this time-out was varied between choices, with the longest time-out being associated with the largest, least likely reward. […] On the other 20% of occasions, a 10 second time-out was initiated. Once stable performance was achieved, rats were administered ebselen (2, 5 and 10 mg/kg i.p.) or vehicle in a Latin square design.

In the case of `O=c1c2ccccc2[se]n1-c1ccccc1` [Ebselen, 2-phenyl-1,2-benzisoselenazol-3(2H)-one], the LD50 concentration (rats [1]) is given as “greater than 1000 mg/kg”, the premature responding (rats [2]; ebselen 2 mg/kg i.p. vs vehicle, p=0.158) is given as “No effect” and the premature responding (rats [2]; ebselen 5 mg/kg i.p. vs vehicle, p=0.011) is given as “statistically significant decreases”. The premature responding (rats [2]; ebselen 10 mg/kg i.p. vs vehicle, p=0.032) was “statistically significant decreases”, the premature responding (rats [2]; ebselen 2, 5, 10 mg/kg i.p. 1 hour prior to testing, vs vehicle, ANOVA p=0.049, inter-trial interval 7 s) was “decreased premature responding in a dose-dependent manner” and the “any other measures of the 5-CSRTT” value (rats [2]; ebselen 2, 5, 10 mg/kg i.p., p=0.192-0.805) was “No effects”. The tolerability (healthy participants; 20 healthy participants, 6x200 mg in three doses over two days, no participants dropped out) was “well tolerated”, the “frequency of other side effects” value (healthy participants; ebselen and placebo treatment compared) was “low and comparable frequency of side effects” and the “subjective measures of sleep (LSEQ)” value (healthy participants; ebselen vs placebo) was “no significant differences”. The “participants who reported feeling drowsy” value (healthy participants; of 20 participants on ebselen treatment, none on placebo) was “Five”, the premature responses (rats [3]; ebselen 2 mg/kg i.p. vs vehicle, p=0.052) was “decreased premature responses” and the “response latency (increase in time to respond)” value (rats [3]; ebselen 2 mg/kg, paired t-test, p=0.056) was “trend”. For the same compound, the “reward latency (time taken to collect rewards)” value (rats [3]; ebselen 2 mg/kg, p=0.024) was “significant increase”, the premature responses (rats [3]; ebselen 5 mg/kg i.p. vs vehicle, p=0.077) was “decreased trend” and the “response latency (increase in time to respond)” value (rats [3]; ebselen 5 mg/kg, paired t-test, p=0.028) was “significant”. For the same compound, the reward latency (rats [3]; ebselen 5 mg/kg, p=0.069) was “trend increase”, the premature responses (rats [3]; ebselen 10 mg/kg i.p. vs vehicle, p=0.028) was “decreased premature responses” and the response latency (rats [3]; ebselen 10 mg/kg, paired t-test, p=0.246) was “no significant effect”. For the same compound, the “reward latency (time taken to collect rewards)” value (rats [3]; ebselen 10 mg/kg, p=0.005) was “significant increase”, the reward latency (rats [3]; ebselen 2, 5, 10 mg/kg i.p., overall ANOVA, p=0.062) was “no effect” and the response latency (rats [3]; ebselen 2, 5, 10 mg/kg i.p., overall ANOVA, p=0.090) was “no effect”. The “number of trials completed during the sessions” value (rats [3]; ebselen 2, 5, 10 mg/kg i.p., p=0.546) was “no effect”, the choice behaviour (rats [3]; ebselen 2, 5, 10 mg/kg i.p., p=0.596) was “no effect” and the premature responses (rats [3]; ebselen 2, 5 and 10 mg/kg i.p. overall, p=0.088) was “overall trend to decreased premature responses”.

From patent US10653680B2, “Treatment of impulsivity-related disorders” (OXFORD UNIVERSITY INNOVATION LIMITED, priority 2016, dated 2020)
